Results from patent US20170003275A1, “METHOD TO IDENTIFY COMPOUNDS ABLE TO BIND TO THE ROSSMANN FOLD OF C-TERMINAL-BINDING PROTEINS, IDENTIFIED COMPOUNDS AND MEDICAL USES THEREOF” (CONSIGLIO NAZIONALE DELLE RICERCHE, priority 2013, published 2017).
Where two headings read alike, the source gives them in different places.

Key:
HeLa cells = assay: Cell viability assay (Hoechst cell number); conditions: for effect on cell viability: even at 100 microM; for 50% Viability: 0.01 to 100 μM
Description: Quantitative analyses were performed using a GraphPad Prism Software.
At the end of the incubation the cells have been fixed, stained with Hoechst to label the DNA and analysed using a fluorescence microscope for the automated images acquisition and analysis (Olympus ScaR). […] An EC50 was calculated for the remaining molecules.

recombinant BARS = molecular target: T1, recombinant BARS (Rattus norvegicus, UniProt Q9Z2F5); assay: NAD competition assay ([3H]-NAD+ binding to BARS, dot blot); conditions: for NAD Displac. (%): 10 μM [3H]-NAD+, molecules 0.01 to 100 μM, 2 h 37° C.; for competition for the binding of NAD to BARS (selection): 0.01 to 100 μM
T1 construct: His; made in house
Description: Five μg of recombinant BARS were incubated for 2 h at 37° C. in 100 μl buffer (20 mM HEPES at pH 7.4, 25 mM NaCl and 10 μM [^3H]-NAD^+ (specific activity: 1 μCi/μmol)) in the presence of a range of concentrations (from 0.01 to 100 μM) of the molecules listed in table 1. At the end of the incubation BARS was recovered by trapping it to nitrocellulose using a Dot-Blot apparatus (Bio-Rad Laboratories, UK) according to manufacturer instruction. The samples were washed three times in ice-cold HEPES buffer (20 mM, pH 7.4). The amount of radiolabelled NAD bound to BARS was measured using a BetaImager (BioSpace Lab); the total amount of BARS bound to nitrocellulose was evaluated by red ponceau staining (Sigma-Aldrich) according to manufacturer instructions. Quantitative analyses were performed using GraphPad Prism Software.
A second virtual library was performed using the whole KEGG COMPOUND Database. […] To rank the molecules according to their affinity for BARS, the inventors set up a new assay for determining the capability of the 28 candidate molecules to compete for the binding of NAD to BARS. To this purpose, radiolabeled NAD and recombinant BARS were incubated for 2 h in the presence of a range of concentrations (from 0.01 to 100 μM) of the molecules. At the end of the incubation BARS was recovered by trapping it to nitrocellulose using a dot blot apparatus, and the radiolabelled NAD bound to BARS was evaluated by measuring the radioactivity using a BetaImager (BioSpace Lab).

[1] = tested on: Zonula Occludens (ZO1), CtBP target gene; assay: Expression of CtBP target genes, Western blot of Zonula Occludens; type: cell-based, human; conditions: HeLa; for protein levels of Zonula Occludes: 2 and 4 days, Western blot; for minimal effective concentration: minimum effective concentration, Zonula Occludens protein, read-out: CtBP target genes increase (corepressive activity inhibition) Western Blot
Description: At the end of the incubations part of the samples was analyzed by western blot. To this purpose, the samples were washed with ice-cold PBS and lysed in 100 μl of SDS sample buffer. The samples were then separated on 8% SDS-PAGE gels, transferred onto nitrocellulose, and subjected to Western blotting using an antibody against Zonula Occludens (anti ZO1; Cell Signaling N. Cat. 5406) and an antibody against GAPDH (AbD Serotec) as a reference. The anti ZO1 antibody was used at a 1:1000 dilution; the anti GAPDH antibody was used at an 1:100000 dilution. The nitrocellulose membranes were subjected to ECL (as described above). The freeware ImageJ software (http://imagej.nih.gov) was used for quantitative analysis.

[2] = Homo sapiens, 48 h, read-out: 50% Viability

Row | Compound | effect on cell viability (HeLa cells; 48 h) | EC50 (HeLa cells; [2]) [µM] | NAD Displac. (%) (recombinant BARS) | competition for the binding of NAD to BARS (selection) (recombinant BARS) | 50% Viability (HeLa cells; 48 h) | protein levels of Zonula Occludes [1] | minimal effective concentration ([1]; Homo sapiens) [µM] | EC50 (HeLa cells; read-out: 50% Viability, 48 h, 0.01 to 100 μM) [µM] | minimal effective concentration [1] [µM]
1 | NCc1ccccc1CC(=O)N[C@@H]1C(=O)N2C(C(=O)O)=C(CSc3nnnn3CC(=O)O)CS[C@H]12 [C29, (6R,7R)-7-[2-[2-(Aminomethyl)phenyl]acetamido]-3-[1-(carboxymethyl)-1H-tetrazol-5-ylsulfanylmethyl]-8-oxo-5-thia-1-azabicyclo[4.2.0]-2-octene-2-carboxylic acid] | did not affect (or had minor effects) | > 100 | 35 | best competitors |  |  |  |  | 
2 | Cc1c(Cc2c(Cl)cccc2Cl)c(=O)oc2cc(OCC(=O)OCC(=O)c3ccc(Cl)cc3)ccc12 [C12, 2-(4-chlorophenyl)-2-oxoethyl 2-{[3-(2,6-dichlorobenzyl)-4-methyl-2-oxo-2H-chromen-7-yl]oxy}acetate] | did not affect (or had minor effects) |  | 23 | best competitors | Little |  |  |  | 
3 | O=C1C2C3c4ccccc4C(c4ccccc43)C2C(=O)N1C(CO)(CO)CO [C8, (9R,10S,11S,15R)-13-(1,3-dihydroxy-2-(hydroxymethyl)propan-2-yl)-10,11-dihydro-9H-9,10-[3,4]epipyrroloanthracene-12,14(13H,15H) dione] | did not affect (or had minor effects) | > 100 |  |  |  | able to increase | 10 |  | 
4 | CC(=O)CC(c1ccc(Cl)cc1)c1c(O)c2ccccc2oc1=O (stereo not drawn) [C4, 3-[1-(4-chlorophenyl)-3-oxobutyl]-4-hydroxychromen-2-one] | did not affect (or had minor effects) | > 100 | 20 | best competitors |  | able to increase | 10 |  | 
5 | NS(=O)(=O)Oc1ccc2c3c(c(=O)oc2c1)CCCCC3 [C3, Sulfamic acid 6-oxo-6,7,8,9,10,11-hexahydrocyclohepta[c]-1-benzopyran-3-yl ester] |  | 10 |  |  |  |  |  |  | 
6 | CC(=O)CC(c1ccc([N+](=O)[O-])cc1)c1c(O)c2ccccc2oc1=O (stereo not drawn) [C5, 4-Hydroxy-3-[1-(4-nitrophenyl)-3-oxobutyl]-2H-1-benzopyran-2-one] | did not affect (or had minor effects) | > 100 |  |  |  |  |  |  | 
7 | CC(=O)CC(c1ccccc1)c1c(O)c2ccccc2oc1=O (stereo not drawn) [C1, 4-Hydroxy-3-(3-oxo-1-phenylbutyl)-2H-1-benzopyran-2-one] | did not affect (or had minor effects) | > 100 | 15 | best competitors |  | able to increase | 100 |  | 
8 | CN1CCc2c(sc(/N=C/c3cccs3)c2C(N)=O)C1 [C9, 6-methyl-2-[(E)-(thiophen-2-ylmethylidene)amino]-4H,5H,6H,7H-thieno[2,3-c]pyridine-3-carboxamide] | did not affect (or had minor effects) |  |  |  |  | able to increase |  | > 100 | 10
9 | O=C(CCc1ccc(O)cc1)c1c(O)cc(O)cc1O[C@@H]1O[C@H](CO)[C@@H](O)[C@H](O)[C@H]1O [C16, 1-(2,4-dihydroxy-6-{[(2S,3R,4S,5S,6R)-3,4,5-trihydroxy-6-(hydroxymethyl)oxan-2-yl]oxy}phenyl)-3-(4-hydroxyphenyl)propan-1-one] | did not affect (or had minor effects) | > 100 |  |  |  |  |  |  | 
10 | CCCCOc1ccc(C2=N/C(=C\c3cc(OC)c(OC)cc3OC)C(=O)O2)cc1 [C10, (4Z)-2-(4-butoxyphenyl)-4-[(2,4,5-trimethoxyphenyl)methylidene]-4,5-dihydro-1,3-oxazol-5-one] | did not affect (or had minor effects) |  | 30 | best competitors | Little |  |  |  | 
11 | O=C1OC(c2c(O)c3ccccc3oc2=O)c2ccccc21 (stereo not drawn) [C14, 4-hydroxy-3-(3-oxo-1,3-dihydroisobenzofuran-1-yl)-2H-chromen-2-one] |  | 10 |  |  |  |  |  |  | 
12 | NC(=O)[C@@H]1CCCN1C(=O)[C@H](Cc1cnc[nH]1)NC(=O)[C@@H]1CCC(=O)N1 [C21, (2S)-N-[(2S)-1-[(2S)-2-carbamoylpyrrolidin-1-yl]-3-(1H-imidazol-5-yl)-1-oxopropan-2-yl]-5-oxopyrrolidine-2-carboxamide] | did not affect (or had minor effects) | > 100 |  |  |  |  |  |  | 
13 | C[C@H]1[C@H](NC(=O)C(=NOC(C)(C)C(=O)O)c2csc(N)n2)C(=O)N1S(=O)(=O)O (stereo in doubt) [C28, 2-[(Z)-[1-(2-amino-1,3-thiazol-4-yl)-2-[[(2S,3S)-2-methyl-4-oxo-1-sulfoazetidin-3-yl]amino]-2-oxoethylidene]amino]oxy-2-methylpropanoic acid] | did not affect (or had minor effects) |  | 15 |  |  | able to increase | 1 |  | 
14 | COc1ccc(-c2coc3cc(O[C@@H]4O[C@H](CO)[C@@H](O)[C@H](O)[C@H]4O)ccc3c2=O)cc1 [C15, 3-(4-methoxyphenyl)-7-{[(2S,3R,4S,5S,6R)-3,4,5-trihydroxy-6-(hydroxymethyl)oxan-2-yl]oxy}-4H-chromen-4-one] | did not affect (or had minor effects) |  |  |  | Little | able to increase | 5 |  | 
15 | O=C(O)Cc1nn(Cc2nc3cc(C(F)(F)F)ccc3s2)c(=O)c2ccccc12 [C18, 2-[4-Oxo-3-[5-(trifluoromethyl)benzothiazol-2-ylmethyl]-3,4-dihydrophthalazin-1-yl]acetic acid] | did not affect (or had minor effects) |  |  |  | Little |  |  |  | 
16 | COc1cc(C2Oc3c(O)cc(C4Oc5cc(O)cc(O)c5C(=O)C4O)cc3C2CO)ccc1O (stereo not drawn) [C17, 3beta,5,7-Trihydroxy-2alpha-[7-hydroxy-2beta-(4-hydroxy-3-methoxyphenyl)-3alpha-(hydroxymethyl)-2,3-dihydrobenzofuran-5-yl]-2,3-dihydro-4H-benzo[b]pyran-4-one] | did not affect (or had minor effects) | > 100 |  |  |  |  |  |  | 
17 | C#C[C@]1(O)CC[C@H]2[C@@H]3CCc4cc(OC5CCCC5)ccc4[C@H]3CC[C@@]21C [C19, 17alpha-Ethynylestradiol 3-cyclopentyl ether] |  | 1 |  |  |  |  |  |  | 
18 | COc1cc(CNC(=O)CCCC/C=C/C(C)C)ccc1O [C6, N-(4-Hydroxy-3-methoxybenzyl)-8-methyl-6(E)-nonenamide 8-Methyl-N-vanillyl-trans-6-nonenamide] | did not affect (or had minor effects) | > 100 | 20 | best competitors |  |  |  |  | 
